Patent US8734777B2, “Heterocyclic antiviral compounds” (priority 2010, dated 2014)

Columns and labels:
[1] = biological target: T1, HCV polymerase (NS5B570n-Con1) (Hepatitis C virus genotype 1b, UniProt Q9WMX2); experiment: HCV NS5B RNA polymerase activity assay; format: biochemical, HCV Con1 strain
T1 construct: contains a 21 amino acid deletion at the C-terminus relative to the full-length HCV polymerase; 6-histidine (N); made in house; host or cells: E. coli strain BL21(DE) pLysS, plasmid pET17b
Description: The enzymatic activity of HCV polymerase (NS5B570n-Con1) was measured as the incorporation of radiolabeled nucleotide monophosphates into acid insoluble RNA products. Unincorporated radiolabeled substrate was removed by filtration and scintillant was added to the washed and dried filter plate containing radiolabeled RNA product. The amount of RNA product generated by NS5B570-Con1 at the end of the reaction was directly proportional to the amount of light emitted by the scintillant.
The N-terminal 6-histidine tagged HCV polymerase, derived from HCV Con1 strain, genotype 1b (NS5B570n-Con1) contains a 21 amino acid deletion at the C-terminus relative to the full-length HCV polymerase and was purified from E. coli strain BL21(DE) pLysS. The construct, containing the coding sequence of HCV NS5B Con1 (GenBank accession number AJ242654) was inserted into the plasmid construct pET17b, downstream of a T7 promoter expression cassette and transformed into E. coli. A single colony was grown overnight as a starter culture and later used inoculate 10 L of LB media supplemented with 100 μg/mL ampicillin at 37° C. Protein expression was induced by the addition of 0.25 mM isopropyl-β-D-thiogalactopyranoside (IPTG) when optical density at […] of the culture was between 0.6 and 0.8 and cells were harvested after 16 to 18 h at 30° C. NS5B570n-Con1 was purified to homogeneity using a three-step protocol including subsequent column chromatography on Ni-NTA, SP-Sepharose HP and Superdex 75 resins. […]
The amount of light emitted from the scintillant was converted to counts per minute (CPM) on a Topcount® plate reader (Perkin-Elmer, Energy Range: Low, Efficiency Mode: Normal, Count Time: 1 min, Background Subtract: none, Cross talk reduction: Off).
Data was analyzed in Excel® (Microsoft®) and ActivityBase® (Idbs®). […] All data was expressed as a percentage of the positive control. […]

[2] = system: HCV replicon cells (2209-23), genotype 1b replicon; experiment: HCV replicon assay (Renilla luciferase reporter); format: cell-based, HCV genotype 1b; conditions: Hepatitis C virus, 72 h; 2209-23 cells, three days incubation, luciferase activity
in vitro = conditions: human

Question: Which IC50 [1] does the source give for COc1c(C(C)(C)C)cc(-c2ccc[nH]c2=O)c2ccc(-c3ccc(NS(C)(=O)=O)cc3)nc12 [Compound I-1, N-{4-[7-tert-Butyl-8-methoxy-5-(2-oxo-1,2-dihydro-pyridin-3-yl)-quinolin-2-yl]-phenyl}-methanesulfonamide] here?
Answer: The IC50 was 0.6 nM.

Question: Which results are given for COc1c(C(C)(C)C)cc(-n2ccc(=O)[nH]c2=O)c2ccc(-c3ccc(NS(C)(=O)=O)cc3)nc12 [Compound I-3, N-{4-[7-tert-Butyl-5-(2,4-dioxo-3,4-dihydro-2H-pyrimidin-1-yl)-8-methoxy-quinolin-2-yl]-phenyl}-methanesulfonamide]?
Answer: melting point: 275 to 278 °C; IC50 [2]: 17 nM; IC50 [1]: 0.2 nM; CC50 at 3 days (in vitro): 44000 nM

Question: With COc1c(C(C)(C)C)cc(-c2ccc(C)[nH]c2=O)c2ccc(-c3ccc(NS(C)(=O)=O)cc3)nc12 [Compound I-2, N-{4-[7-tert-Butyl-8-methoxy-5-(6-methyl-2-oxo-1,2-dihydro-pyridin-3-yl)-quinolin-2-yl]-phenyl}-methanesulfonamide] as the compound, how does the IC50 [1] read?
Answer: Its IC50 is 0.4 nM.
